Assay results taken from ChEMBL document CHEMBL1201862, “PubChem BioAssay data set” (2004).
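Assay format: 96-well plates, 48-hour exposure. GI50: concentration for 50% inhibition of growth.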 Activity calls are given as the source filed them. Rule as the data show it: active = GI50 up to about 1.1 µM and inactive = higher.

Tests used:
Experiment in all cases: NCI anticancer screen, dose series, 48 h
786-0 = test system: 786-0
A498 = test system: A498
ACHN = test system: ACHN
CAKI-1 = test system: CAKI-1
CCRF-CEM = test system: CCRF-CEM
DU-145 = test system: DU-145
EKVX = test system: EKVX
HCC 2998 = test system: HCC 2998
HCT-116 = test system: HCT-116
HCT-15 = test system: HCT-15
HL-60 = test system: HL-60
HOP-62 = test system: HOP-62
HT-29 = test system: HT-29
Hs-578T = test system: Hs-578T
IGROV-1 = test system: IGROV-1
K562 = test system: K562
KM12 = test system: KM12
LOX IMVI = test system: LOX IMVI
M14 = test system: M14
MCF7 = test system: MCF7
MDA-MB-231 = test system: MDA-MB-231
MDA-MB-435 = test system: MDA-MB-435
MDA-N = test system: MDA-N
MOLT-4 = test system: MOLT-4
NCI-H226 = test system: NCI-H226
NCI-H23 = test system: NCI-H23
NCI-H460 = test system: NCI-H460
NCI-H522 = test system: NCI-H522
NCI/ADR-RES = test system: NCI/ADR-RES
OVCAR-3 = test system: OVCAR-3
OVCAR-4 = test system: OVCAR-4
OVCAR-5 = test system: OVCAR-5
OVCAR-8 = test system: OVCAR-8
PC-3 = test system: PC-3
RPMI-8226 = test system: RPMI-8226
RXF 393 = test system: RXF 393
SF-268 = test system: SF-268
SF-295 = test system: SF-295
SF-539 = test system: SF-539
SK-MEL-28 = test system: SK-MEL-28
SK-MEL-2 = test system: SK-MEL-2
SK-MEL-5 = test system: SK-MEL-5
SK-OV-3 = test system: SK-OV-3
SR = test system: SR
SW-620 = test system: SW-620
T47D = test system: T47D
TK-10 = test system: TK-10
U-251 = test system: U-251
UACC-257 = test system: UACC-257
UO-31 = test system: UO-31
A549 = test system: A549
COLO 205 = test system: COLO 205
HOP-92 = test system: HOP-92
Malme-3M = test system: Malme-3M
SN12C = test system: SN12C
SNB-19 = test system: SNB-19
SNB-75 = test system: SNB-75
UACC-62 = test system: UACC-62

Cc1cc(S(=O)(=O)[N-]/C(=N/S(=O)(=O)c2cc(Cl)sc2Cl)[n+]2ccc(N(C)C)cc2)c(S)cc1Cl
GI50 (786-0): 68.2 µM (inactive) | GI50 (A498): 26.7 µM (inactive) | GI50 (ACHN): 67 µM (inactive) | GI50 (CAKI-1): 60.3 µM (inactive) | GI50 (CCRF-CEM): 64 µM (inactive) | GI50 (DU-145): 39.4 µM (inactive) | GI50 (EKVX): > 100 µM (inactive) | GI50 (HCC 2998): 60.7 µM (inactive) | GI50 (HCT-116): 24.1 µM (inactive) | GI50 (HCT-15): 42.7 µM | GI50 (HL-60): > 100 µM (inactive) | GI50 (HOP-62): 42.3 µM (inactive) | GI50 (HT-29): 30.6 µM (inactive) | GI50 (Hs-578T): 40.4 µM (inactive) | GI50 (IGROV-1): > 100 µM (inactive) | GI50 (K562): 43.9 µM (inactive) | GI50 (KM12): > 100 µM (inactive) | GI50 (LOX IMVI): > 100 µM (inactive) | GI50 (M14): 30.3 µM (inactive) | GI50 (MCF7): 84.7 µM (inactive) | GI50 (MDA-MB-231): 77.3 µM (inactive) | GI50 (MDA-MB-435): 62.1 µM (inactive) | GI50 (MDA-N): 34 µM (inactive) | GI50 (MOLT-4): 84.3 µM (inactive) | GI50 (NCI-H226): 39.3 µM (inactive) | GI50 (NCI-H23): 34.9 µM (inactive) | GI50 (NCI-H460): 44.3 µM (inactive) | GI50 (NCI-H522): 25.4 µM (inactive) | GI50 (NCI/ADR-RES): > 100 µM (inactive) | GI50 (OVCAR-3): 96.6 µM (inactive) | GI50 (OVCAR-4): 37.2 µM (inactive) | GI50 (OVCAR-5): 49.3 µM (inactive) | GI50 (OVCAR-8): 40.8 µM (inactive) | GI50 (PC-3): 53.8 µM (inactive) | GI50 (RPMI-8226): 47.5 µM (inactive) | GI50 (RXF 393): 46.3 µM (inactive) | GI50 (SF-268): 40.1 µM (inactive) | GI50 (SF-295): 47.9 µM (inactive) | GI50 (SF-539): 46.6 µM (inactive) | GI50 (SK-MEL-28): 84.9 µM (inactive) | GI50 (SK-MEL-2): 50.4 µM (inactive) | GI50 (SK-MEL-5): 77.8 µM (inactive) | GI50 (SK-OV-3): 42.9 µM (inactive) | GI50 (SR): 39.4 µM (inactive) | GI50 (SW-620): 49.9 µM (inactive) | GI50 (T47D): > 100 µM (inactive) | GI50 (TK-10): 49.7 µM (inactive) | GI50 (U-251): 45.2 µM (inactive) | GI50 (UACC-257): > 100 µM (inactive) | GI50 (UO-31): 23.2 µM (inactive)

CSc1nc2c(=O)n(-c3ccccc3)c(=S)n(-c3ccccc3)c2s1
GI50 (786-0): 25.9 µM (inactive) | GI50 (A549): > 100 µM (inactive) | GI50 (ACHN): 45.4 µM (inactive) | GI50 (CCRF-CEM): > 100 µM (inactive) | GI50 (COLO 205): > 100 µM (inactive) | GI50 (DU-145): > 100 µM (inactive) | GI50 (HCC 2998): > 100 µM (inactive) | GI50 (HCT-116): > 100 µM (inactive) | GI50 (HCT-15): > 100 µM | GI50 (HL-60): > 100 µM (inactive) | GI50 (HOP-62): 42 µM (inactive) | GI50 (HOP-92): 25.4 µM (inactive) | GI50 (HT-29): > 100 µM (inactive) | GI50 (Hs-578T): 29.2 µM (inactive) | GI50 (IGROV-1): > 100 µM (inactive) | GI50 (K562): > 100 µM (inactive) | GI50 (KM12): 49 µM (inactive) | GI50 (LOX IMVI): 82 µM (inactive) | GI50 (M14): 70 µM (inactive) | GI50 (MCF7): > 100 µM (inactive) | GI50 (MDA-MB-231): 49.2 µM (inactive) | GI50 (MDA-MB-435): > 100 µM (inactive) | GI50 (MDA-N): > 100 µM (inactive) | GI50 (MOLT-4): 63.2 µM (inactive) | GI50 (Malme-3M): 64.1 µM (inactive) | GI50 (NCI-H226): 31.1 µM (inactive) | GI50 (NCI-H23): > 100 µM (inactive) | GI50 (NCI-H460): > 100 µM (inactive) | GI50 (NCI-H522): > 100 µM (inactive) | GI50 (NCI/ADR-RES): 85.1 µM (inactive) | GI50 (OVCAR-3): 67 µM (inactive) | GI50 (OVCAR-4): 71.4 µM (inactive) | GI50 (OVCAR-5): > 100 µM (inactive) | GI50 (OVCAR-8): > 100 µM (inactive) | GI50 (PC-3): > 100 µM (inactive) | GI50 (RPMI-8226): > 100 µM (inactive) | GI50 (RXF 393): 34.4 µM (inactive) | GI50 (SF-268): 65 µM (inactive) | GI50 (SF-295): 97.5 µM (inactive) | GI50 (SF-539): 39.9 µM (inactive) | GI50 (SK-MEL-28): > 100 µM (inactive) | GI50 (SK-MEL-2): > 100 µM (inactive) | GI50 (SK-MEL-5): > 100 µM (inactive) | GI50 (SK-OV-3): 81.3 µM (inactive) | GI50 (SN12C): 37.9 µM (inactive) | GI50 (SNB-19): 14.2 µM (inactive) | GI50 (SNB-75): 41.6 µM (inactive) | GI50 (SR): > 100 µM (inactive) | GI50 (SW-620): > 100 µM (inactive) | GI50 (T47D): > 100 µM (inactive) | GI50 (TK-10): 42.1 µM (inactive) | GI50 (U-251): 38.5 µM (inactive) | GI50 (UACC-257): > 100 µM (inactive) | GI50 (UO-31): > 100 µM (inactive)

N#CC(C#N)C1CN2CCC1CC2 (stereo unspecified)
GI50 (786-0): > 100 µM (inactive) | GI50 (A498): > 100 µM (inactive) | GI50 (A549): > 100 µM (inactive) | GI50 (ACHN): > 100 µM (inactive) | GI50 (CAKI-1): > 100 µM (inactive) | GI50 (CCRF-CEM): > 100 µM (inactive) | GI50 (COLO 205): > 100 µM (inactive) | GI50 (DU-145): > 100 µM (inactive) | GI50 (EKVX): > 100 µM (inactive) | GI50 (HCC 2998): > 100 µM (inactive) | GI50 (HCT-116): > 100 µM (inactive) | GI50 (HCT-15): > 100 µM | GI50 (HL-60): > 100 µM (inactive) | GI50 (HOP-62): > 100 µM (inactive) | GI50 (HT-29): > 100 µM (inactive) | GI50 (Hs-578T): > 100 µM (inactive) | GI50 (IGROV-1): > 100 µM (inactive) | GI50 (K562): > 100 µM (inactive) | GI50 (KM12): > 100 µM (inactive) | GI50 (LOX IMVI): > 100 µM (inactive) | GI50 (M14): > 100 µM (inactive) | GI50 (MCF7): > 100 µM (inactive) | GI50 (MDA-MB-231): > 100 µM (inactive) | GI50 (MDA-MB-435): > 100 µM (inactive) | GI50 (MDA-N): > 100 µM (inactive) | GI50 (MOLT-4): > 100 µM (inactive) | GI50 (Malme-3M): > 100 µM (inactive) | GI50 (NCI-H226): > 100 µM (inactive) | GI50 (NCI-H23): > 100 µM (inactive) | GI50 (NCI-H460): > 100 µM (inactive) | GI50 (NCI-H522): > 100 µM (inactive) | GI50 (NCI/ADR-RES): > 100 µM (inactive) | GI50 (OVCAR-3): > 100 µM (inactive) | GI50 (OVCAR-4): > 100 µM (inactive) | GI50 (OVCAR-5): > 100 µM (inactive) | GI50 (OVCAR-8): 79.6 µM (inactive) | GI50 (PC-3): > 100 µM (inactive) | GI50 (RPMI-8226): > 100 µM (inactive) | GI50 (RXF 393): 90.4 µM (inactive) | GI50 (SF-268): > 100 µM (inactive) | GI50 (SF-295): > 100 µM (inactive) | GI50 (SF-539): > 100 µM (inactive) | GI50 (SK-MEL-28): > 100 µM (inactive) | GI50 (SK-MEL-2): > 100 µM (inactive) | GI50 (SK-MEL-5): > 100 µM (inactive) | GI50 (SK-OV-3): > 100 µM (inactive) | GI50 (SN12C): > 100 µM (inactive) | GI50 (SNB-19): > 100 µM (inactive) | GI50 (SNB-75): > 100 µM (inactive) | GI50 (SR): > 100 µM (inactive) | GI50 (SW-620): > 100 µM (inactive) | GI50 (T47D): > 100 µM (inactive) | GI50 (TK-10): > 100 µM (inactive) | GI50 (U-251): > 100 µM (inactive) | GI50 (UACC-257): > 100 µM (inactive) | GI50 (UACC-62): > 100 µM (inactive) | GI50 (UO-31): > 100 µM (inactive)
